One series deals with hepatitis C virus (HCV). Particulars: read-out: IC50, replication of hepatitis C virus; cited from earlier work.
The target in series [1] is T1, PV RdRP (Poliovirus type 1, UniProt P03300). Particulars: cited from earlier work.
The subject of a further series is DENV2 replicon. The series is classed as cell-based, dengue virus type 2.
The subject of series [2] is poliovirus (PV).
Series [3] has as its system poliovirus (PV). The series is described as follows: in vitro. Particulars: human.
A further series in a line: in vitro. Particulars: human.
The target in series [4] is T2, PV RdRP (3D^pol) (Poliovirus type 1, UniProt P03300). The series is classed as biochemical.
T2 sequence (P03300 1749-2209 limits assumed): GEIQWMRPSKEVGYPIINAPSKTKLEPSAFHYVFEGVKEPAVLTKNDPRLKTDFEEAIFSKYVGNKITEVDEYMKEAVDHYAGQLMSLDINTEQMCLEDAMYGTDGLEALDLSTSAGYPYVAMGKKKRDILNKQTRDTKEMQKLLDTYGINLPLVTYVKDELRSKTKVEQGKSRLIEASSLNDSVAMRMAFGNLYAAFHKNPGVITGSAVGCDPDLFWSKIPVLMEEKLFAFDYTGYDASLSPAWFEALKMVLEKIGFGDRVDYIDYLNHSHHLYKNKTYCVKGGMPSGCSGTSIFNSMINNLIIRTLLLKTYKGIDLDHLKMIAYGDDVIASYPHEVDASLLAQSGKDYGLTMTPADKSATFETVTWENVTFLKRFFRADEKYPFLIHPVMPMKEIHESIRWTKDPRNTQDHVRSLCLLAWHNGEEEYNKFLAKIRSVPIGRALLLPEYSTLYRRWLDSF
The target in series [5] is T1, PV RdRP. Type of series: biochemical.
Series [6] addresses T2, PV RdRP (3D^pol). Type of series: biochemical. The source holds these as a separate data set.
For series [7], the system named is dengue virus type 2 (DENV2). The note with it: read-out: IC50, dengue virus type 2; cited from earlier work.

Molecules are shown by their SMILES. “Also recorded” adds a separate entry of the source. Where two headings read alike, the source gives them in different places.

For orientation: IC50 means the concentration at which inhibition is half-maximal. As a reminder, the viability is a read-out of living cells in per cent, often relative to untreated cells. A high value points to better survival.

T1 sequence (P03300 1749-2209 limits assumed): as above

Consider `C[C@@]1(O)[C@H](O)[C@@H](CO)O[C@H]1n1ccc2c(N)ncnc21` [7-deaza-2'-C-methyladenosine], for which the IC50 in the series with hepatitis C virus (HCV) was 108 nM.

With `Nc1ncnc2c1ncn2[C@@H]1O[C@H](COP(=O)(O)OP(=O)(O)OP(=O)(O)O)[C@@H](O)[C@H]1O` [ATP, adenosine triphosphate], at PV RdRP [1], the “Efficiency kpol/Kd,app” value was 0.65 s⁻¹ µM⁻¹ and the kpol is 87 ± 4 s⁻¹.

With `Cc1ncnc2c1ncn2[C@@H]1O[C@H](CO)[C@@H](O)[C@H]1O` [Compound 2, 6-methyl-9-β-D-ribofuranosylpurine, reference compound], the “Cytotoxic effects to HeLa cells after 7 h” value (shortened to “Cytotoxic effects”) in the series with HeLa S3 cells is given as “pronounced effects”. Besides, the “Toxicity relative to 3 (fold less toxic)” value in the series with HeLa S3 cells (human) is given as ~ 5 fold.

Take `Nc1ncnc2c1ccn2[C@@H]1O[C@H](CO)[C@@H](O)[C@H]1O` [Compound 3, tubercidin, reference compound]: in the series with HeLa S3 cells, the “Cytotoxic effects” value is given as “pronounced effects”.

Turning to `Cc1ccnc2c1ncn2[C@@H]1O[C@H](CO)[C@@H](O)[C@H]1O` [Compound 4, 7-Methyl-3-β-D-ribofuranosyl-3H-imidazo[4,5-b]pyridine], the “Inhibition of DENV2 replicon activity” value in the series on DENV2 replicon is “essentially no inhibition”. In the series on HeLa S3 cells, the “Cytotoxic effects” value is given as “little cytotoxicity” and the “Cytotoxicity” value was “essentially no cytotoxicity”. In addition, in the series on poliovirus (PV) [2], the “Activity against PV” value is “inactive”.

As for `Cc1nccc2c1ncn2[C@@H]1O[C@H](CO)[C@@H](O)[C@H]1O` [Compound 5, 3-deaza-6-methyl-9-β-D-ribofuranosylpurine], the “Inhibition of DENV2 replicon activity” value in the series on DENV2 replicon is given as “essentially no inhibition”. Moreover, in the series on HeLa S3 cells, the “Cytotoxicity” value is “essentially no cytotoxicity”. Further, in the series with poliovirus (PV) [2], the “Activity against PV” value was “inactive” and the “Antiviral activity in plaque assays of infectivity” value is “essentially inactive”.

For `Cc1ncnc2c1ccn2[C@@H]1O[C@H](CO)[C@@H](O)[C@H]1O` [Compound 6, 4-Methyl-7-β-D-ribofuranosylpyrrolo[2,3-d]pyrimidine], the selectivity ratio in the series with poliovirus (PV) [3] is above 100. Also, in “in vitro”, the viability at 100 µM is 33%.

Turning to `COC[C@H]1O[C@@H](n2ccc3c(C)ncnc32)[C@H](O)[C@@H]1O` [Compound 7, 4-Methyl-7-(5'-O-methyl-β-D-ribofuranosyl)pyrrolo[2,3-d]pyrimidine], in the series on DENV2 replicon, the “Inhibition of DENV2 replicon activity” value is on record as “essentially no inhibition”. Moreover, in the series with HeLa S3 cells, the “Cytotoxic effects” value is “little cytotoxicity” and the “Cytotoxicity” value is recorded as “essentially no cytotoxicity”. Further, in the series with poliovirus (PV) [2], the “Antiviral activity in plaque assays of infectivity” value is recorded as “eliminated the antiviral effect” and the “Reduction of biological activity on methylation of the 5'-alcohol of 6” value is listed as “over 1000 fold”.

Consider `Cc1ncnc2c1ncn2[C@@H]1O[C@H](COP(=O)(O)OP(=O)(O)OP(=O)(O)O)[C@@H](O)[C@H]1O` [Compound 8, 6-methyl-9-β-D-ribofuranosylpurine 5'-triphosphate], for which, on PV RdRP (3D^pol) [4], the “Incorporation efficiency across from uracil” value was “comparable to natural ATP”; the “Incorporation opposite adenine and guanine” value is “almost no incorporation”; the “RNA chain termination (extension of RNA oligomers to +4)” value is “neither of these compounds functions as a RNA chain terminator”. Further, on PV RdRP [5], the “Efficiency kpol/Kd,app” value is 0.06 s⁻¹ µM⁻¹; the “Efficiency relative to natural ATP” value is “only ten-fold lower than natural ATP”; the “Incorporation opposite C by PV RdRP, rate” value is “extremely slow”; the “Substrate of PV RdRP” value is listed as “robust substrates”. On PV RdRP [5], this compound returned a kpol of 11 ± 0.3 s⁻¹. At PV RdRP (3D^pol) [6], the “Inhibition of PV RdRP” value is on record as “neither 8 nor 9 inhibit PV RdRP” and the “kcat compared with natural correct nucleotides” value is “increases in kcat”.

As to `Cc1ncnc2c1ccn2[C@@H]1O[C@H](COP(=O)(O)OP(=O)(O)OP(=O)(O)O)[C@@H](O)[C@H]1O` [Compound 9, 4-Methyl-7-β-D-ribofuranosylpyrrolo[2,3-d]pyrimidine 5'-triphosphate], at PV RdRP (3D^pol) [4], the “Incorporation efficiency across from uracil” value was “comparable to natural ATP”; the “Incorporation opposite adenine and guanine” value is on record as “almost no incorporation”; the “RNA chain termination (extension of RNA oligomers to +4)” value is reported as “neither of these compounds functions as a RNA chain terminator”. On PV RdRP [5], the “Efficiency kpol/Kd,app” value is 0.05 s⁻¹ µM⁻¹; the “Efficiency relative to natural ATP” value was “only ten-fold lower than natural ATP”; the “Incorporation opposite C by PV RdRP, rate” value is recorded as “extremely slow”; the “Substrate of PV RdRP” value is recorded as “robust substrates; also recorded: efficient substrate”. The compound also had a kpol at PV RdRP [5] of 6 ± 0.5 s⁻¹. Moreover, on PV RdRP (3D^pol) [6], the “Inhibition of PV RdRP” value is “neither 8 nor 9 inhibit PV RdRP” and the “kcat compared with natural correct nucleotides” value is “increases in kcat”.

With `C#C[C@@]1(O)[C@H](O)[C@@H](CO)O[C@H]1n1ccc2c(N)ncnc21` [NITD008, 7-deaza-2'-C-ethynyladenosine], the IC50 in [7] was 640 nM.

Regarding `NC(=O)c1ncn([C@@H]2O[C@H](COP(=O)(O)OP(=O)(O)OP(=O)(O)O)[C@@H](O)[C@H]2O)n1` [RTP, ribavirin triphosphate], the “Efficiency relative to 8 or 9” value on PV RdRP [5] was “approximately three orders magnitude lower”. Further, on PV RdRP [1], the “Efficiency kpol/Kd,app” value was 0.00003 s⁻¹ µM⁻¹ and the kpol is 0.014 ± 0.001 s⁻¹.

(Values after paper PMC2990348 (Journal of medicinal chemistry, 2010).)
